Data on 1 compound can be found in US12171864B2, “Biological self-assembled nanocrystal injection having a lymphatic targeting function and preparation method” (SHENZHEN CHINA RESOURCES JIUCHUANG MEDICAL AND …, priority 2017, dated 2024).

The nature of data set [1]: Effect of pH on the drug stability (drug content after 0.22 μm filtration). It is filed as physicochemical. As to conditions: filtered 0.22 μm. Here is the method: Mitoxantrone hydrochloride was used as a model drug. The pH of the injection was adjusted to 1.5, 2.0, 2.5, 3.5, 4.5, 5.5, 6.0, 6.5, and 7.0, respectively. At one hour after adjusting the pH value, the content of the drug was determined after filtration through a 0.22 μm membrane. When the pH was between 1.5 and 6.0, the drug content was from 98.45±0.61% to 101.72±0.20%.

The test system of data set [2] is lymph nodes. Nature of the data set: Effect of pH on the drug targeting ability (lymph node staining). It is filed as in vivo, Kunming mice. An excerpt:
Mitoxantrone hydrochloride was used as a model drug. The pH of the injection was adjusted to 1.5, 2.0, 2.5, 3.5, 4.5, 5.5, and 6.0, respectively. The mode of administration of interstitial injection was selected for subcutaneous injection in the paws of Kunming mice. At the pre-set time points, the mice were sacrificed by cervical dislocation, and the first, second and third classes of lymph nodes of the mice were removed for observation of staining.

A further data set deals with injection site. The experiment in a line: Effect of the osmotic pressure on the irritation of the injection site (H&E staining). The format is in vivo, Kunming mice. An excerpt:
Mitoxantrone hydrochloride was used as a model drug. The osmotic pressure of the injection was adjusted to 112, 196, 285, 307, 1503, 2317, and 3011 mmol/Kg, respectively. The mode of administration of interstitial injection was selected for subcutaneous injection in the paws of Kunming mice. At the pre-set time points, the mice were sacrificed by cervical dislocation, and the administration sites of the mice were taken for H&E staining to evaluate local irritation.

For data set [3], the system named is lymph nodes. The experiment in a line: Effect of the osmotic pressure on the drug targeting ability (lymph node staining). The format is in vivo, Kunming mice. The source says:
Mitoxantrone hydrochloride was used as a model drug. The osmotic pressure of the injection was adjusted to 112, 196, 285, 307, 1503, 2317, and 3011 mmol/Kg, respectively. The mode of administration of interstitial injection was selected for subcutaneous injection in the paws of Kunming mice. At the pre-set time points, the mice were sacrificed by cervical dislocation, and the first, second and third classes of lymph nodes were removed for observation of staining.

Structures are written as SMILES. Where a name gives a salt, the structure may show the parent alone.

With `O=C1c2c(O)ccc(O)c2C(=O)c2c(NCCNCCO)ccc(NCCNCCO)c21` [Mitoxantrone hydrochloride], the drug content worked out at 83.76±0.53% in data set [1] (pH 6.5, one hour after adjusting pH) and 75.38±0.22% in data set [1] (pH 7.0, one hour after adjusting pH). Further, the “color of third class of lymph nodes” value with lymph nodes [2] (pH 2.0, 2.5 or 6.0, subcutaneous injection in the paws) was “light blue”; in the data set with lymph nodes [3] (osmotic pressure 285 or 2317 mmol/Kg), “light blue”. For the same compound, the “staining of lymph nodes” value in the data set on lymph nodes [2] (pH between 2.0 and 6.0, subcutaneous injection in the paws) is given as “the three classes of lymph nodes could be stained”; in the data set with lymph nodes [2] (pH between 3.5 and 5.5, subcutaneous injection in the paws), “all the three classes of lymph nodes could be stained into dark blue”; in the data set with lymph nodes [2] (pH less than 2.0, subcutaneous injection in the paws), “only one class of lymph nodes could be stained”; with lymph nodes [3] (osmotic pressure between 285 and 2317 mmol/Kg), “all the three classes of lymph nodes could be stained”; in the data set with lymph nodes [3] (osmotic pressure between 307 and 1503 mmol/Kg), “all the three classes of lymph nodes could be stained into dark blue”; in the data set on lymph nodes [3] (osmotic pressure less than 285 mmol/Kg) it was “only one class of lymph nodes could be stained”. Moreover, the “local irritation of the injection site” value with injection site (osmotic pressure 3011 mmol/Kg, subcutaneous injection in the paws) is “redness and swelling occurred and the H&E staining showed local irritation”; in the data set with injection site (other osmotic pressure values (112, 196, 285, 307, 1503, 2317 mmol/Kg)), “did not show obvious local irritation”.
